Assay results reported in patent publication US20250186475A1, “METHODS OF TREATING MEDICAL CONDITIONS USING ISLATRAVIR OR A RELATED COMPOUND” (ROME Therapeutics, Inc., priority 2022, published 2025).

What was measured:
Type in all cases: cell-based
[1] = target: T1, LINE1 reverse transcriptase (Homo sapiens, UniProt O00370); assay: Stable artificial-intron Cis LINE1 reporter assay (HeLa Tet-On 3G); settings: HeLa L1 reporter cells, doxycycline induced, 72 h; read-out: IC50 for inhibition of FLuc luminescence
T1 construct: expressed in transfected cells
Description: A stable HeLa Tet-On 3G (Takara, cat no 631183) cell line expressing a bi-directional inducible LINE1 construct was generated as described in Xie, Y. et al. “Cell division promotes efficient retrotransposition in a stable L1 reporter cell line,” Mobile DNA (2013) 4:10. Single cell clones were screened for high Luciferase expression and the highest expression Firefly expressing clone was chosen for compound testing.
Test compound was serially diluted in DMSO and spotted in 96-well plates. Subsequently the HeLa L1 artificial-intron reporter cells were plated into the compound-containing wells (8,000 cells/well), and the cells were induced for reporter expression with doxycycline (Sigma cat no D9891) at a final concentration of 500 ng/mL. Luminescence was measured 72 h after plating using the Dual-Glo Luciferase Assay System (Promega cat no E2940) following the manufacturer's instructions. The Firefly Luciferase activity was used to report LINE1 activity.

[2] = tested on: IFN-β production in PBMCs; assay: Decitabine-stimulated human PBMC assay; settings: PBMCs with anti-CD3/anti-CD28 and 10 μM decitabine, 5 days
Description: EasySep buffer (32 mL, Stem Cell, cat. #20144) was used to dilute 8 mL of LRSC buffy coat (from fresh Leukopak) with gentle mixing. The diluted buffy coat (20 mL) was transferred into each of two SepMate 50 tubes, and the tubes were filled with 15 mL of Lyphoprep (Stem Cell, ct. #07851) density gradient. The SepMate tubes were then centrifuged at […] for 10 minutes at room temperature with the brake on. The top layer of supernatant was collected in SepMate tubes by quickly pouring it into a new 50 mL conical tube. The PBMCs were washed with EasySep buffer x2 by centrifuging at 300G for 5 minutes. The cells were resuspended in 30 mL of EasySep and centrifuged at 100G for 5 minutes with the brake off, and the platelets were removed. The cells were then resuspended in 6 mL of 1×RBC lysis buffer (InvitroGen) and incubated at 37° C. for 5 minutes. Then, 25 mL of EasySep buffer was mixed into the tube and it was centrifuged at 300G for 5 minutes. The cells were resuspended in 10 mL of EasySep buffer and the cells were then counted with Cellometer (AO/PI). The PBMCs were resuspended in RPMI1640 (ThermoFisher)+10% FBS (HyClone)+p/s at 3×10^6/mL. The PBMCs (100 μL, 300 k PBMCs) were then seeded in a 96-well flat bottom microplate (Corning) that had been precoated with 100 μL of anti-CD3 antibody (10 μg/mL in PBS, Biolegend) or PBS at 4° C., one day before the assay was commenced. […]

[3] = tested on: THP1-Dual™ KO-TREX1 cells; assay: Cellular assay for altering IFN production in THP1 TREX1 KO cells; settings: in the presence of 1 μM 5-aza-2′-deoxycytidine, five days
Description: (§1) THP1-Dual™ KO-TREX1 cells were purchased from Invivogen (cat #thpd-kotrex). The THP1-Dual™ KO-TREX1 cells were cultured in RPMI 1640, 10% heat-inactivated fetal bovine serum, 25 mM HEPES, 10 μg/mL Blasticidin, and 100 μg/mL Zeocin. THP1-Dual™ KO-TREX1 cells were treated with a dose titration of test compound in the presence of 1 μM 5-aza-2′-deoxycytidine (Sigma, cat #189825). Type 1 Interferon and cell viability were assessed after five days of treatment.
(§2) Stock solution of test compound was prepared in DMSO followed by a three-fold dilution in DMSO. Additional 50× dilution was prepared in cell culture media for each dilution. 10 μL of diluted test compound was then added to a 384-well plate.
(§3) THP1-Dual™ KO-TREX1 cells were treated with 1 μM 5-aza-2′-deoxycytidine. THP1-Dual™ KO-TREX1 cells (50 μL) were added to each well of the 384-well plate containing test compound titration at 10,000 cells/well. Cells were incubated at 37° C., 5% CO2 in a humidified incubator for five days. On day five, 20 μL of cell supernatant was transferred to a 384-well, white-walled plate, followed by addition to each well of 50 μL of QUANTI-LUC solution containing stabilizer. Luminescence was detected on a plate reader according to manufacturer's instructions. […]

[4] = tested on: THP1-Dual™ KO-TREX1 cells; assay: CellTiter-Glo cell viability in THP1 TREX1 KO cells; settings: Homo sapiens, 120 h, in the presence of 1 μM 5-aza-2′-deoxycytidine, five days, read-out: CellTiter-Glo inhibition IC50
Description: as §1, §2
as §3, with “On day five, 20 μL of cell supernatant was transferred to a 384-well, white-walled plate, followed by addition to each well of 50 μL of QUANTI-LUC solution containing stabilizer.” left out
The remaining cells were assessed for cell viability by adding 30 μl of CellTiter-Glo (Promega, G9683) solution to each well, and placed on a shaker for 10 minutes at room temperature. Luminescence was detected on a plate reader, according to manufacturer's instructions. […]

T1 sequence (O00370 whole entry, looked up): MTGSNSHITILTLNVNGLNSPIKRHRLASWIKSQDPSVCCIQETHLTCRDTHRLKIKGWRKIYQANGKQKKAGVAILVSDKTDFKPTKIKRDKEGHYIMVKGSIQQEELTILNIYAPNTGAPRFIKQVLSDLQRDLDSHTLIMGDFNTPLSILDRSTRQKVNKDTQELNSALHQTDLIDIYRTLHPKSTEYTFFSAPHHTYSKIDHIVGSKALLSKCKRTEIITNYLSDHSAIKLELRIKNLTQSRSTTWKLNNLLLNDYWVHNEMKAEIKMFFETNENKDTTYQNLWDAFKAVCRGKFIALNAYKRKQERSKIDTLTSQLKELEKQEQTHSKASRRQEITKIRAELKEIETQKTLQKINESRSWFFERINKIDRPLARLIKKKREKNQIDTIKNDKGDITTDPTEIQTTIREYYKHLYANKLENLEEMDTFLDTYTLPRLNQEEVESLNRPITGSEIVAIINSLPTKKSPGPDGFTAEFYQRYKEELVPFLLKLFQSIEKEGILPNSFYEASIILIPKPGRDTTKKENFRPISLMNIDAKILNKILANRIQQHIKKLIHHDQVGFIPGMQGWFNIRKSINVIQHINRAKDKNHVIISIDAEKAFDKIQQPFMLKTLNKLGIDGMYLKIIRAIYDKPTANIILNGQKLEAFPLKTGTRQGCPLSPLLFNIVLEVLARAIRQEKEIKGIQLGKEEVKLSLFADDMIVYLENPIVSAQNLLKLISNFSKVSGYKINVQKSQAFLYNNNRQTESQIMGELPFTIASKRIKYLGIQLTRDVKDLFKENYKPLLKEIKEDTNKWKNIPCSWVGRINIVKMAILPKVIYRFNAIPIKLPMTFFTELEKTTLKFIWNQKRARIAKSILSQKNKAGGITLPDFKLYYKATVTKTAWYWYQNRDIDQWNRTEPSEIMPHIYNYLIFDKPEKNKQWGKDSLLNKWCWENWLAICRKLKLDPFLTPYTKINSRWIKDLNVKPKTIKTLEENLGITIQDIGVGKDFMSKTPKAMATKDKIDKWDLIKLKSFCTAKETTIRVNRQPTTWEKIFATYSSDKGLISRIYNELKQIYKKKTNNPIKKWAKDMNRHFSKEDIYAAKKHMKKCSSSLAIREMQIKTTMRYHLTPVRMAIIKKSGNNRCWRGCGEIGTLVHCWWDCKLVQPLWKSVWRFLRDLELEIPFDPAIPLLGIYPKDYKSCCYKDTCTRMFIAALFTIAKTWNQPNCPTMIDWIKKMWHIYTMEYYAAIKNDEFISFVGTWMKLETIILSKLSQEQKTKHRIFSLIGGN

C#C[C@]1(CO)O[C@@H](n2cnc3c(N)nc(F)nc32)C[C@@H]1O [Islatravir, (2R,3S,5R)-5-(6-amino-2-fluoro-9H-purin-9-yl)-2-ethynyl-2-(hydroxymethyl)tetrahydrofuran-3-ol]
IC50 [1]: 0.69 nM
production of IFN-β [2]: activated production of IFN-β
changes in IFN levels (% induction) [3]: induction of IFN
IC50 [4]: > 20 µM
